From patent publication US6605115B1, “Method and composition for inhibiting cardiovascular cell proliferation” (Board of Trustees of the Leland Stanford Junior University, priority 1999, dated 2003)

How the values were obtained:
vein graft segments = experiment: Ex vivo NOx production from vein graft harvested 3 days after surgery; type: in vivo, New Zealand white rabbits
Procedure: Vein grafts were harvested 3 days after surgery, as described in Example 7. Vein graft segments were incubated in 1 me of Hanks' buffered saline solution (HBSS, Irvine Scientific) containing Ca^2+ (1.0 mM) and L-arginine (100 μM, Sigma) at 37° C. for 2 hours. NOx (nitrate and nitrite) production was measured either in the absence (basal) or presence (stimulated) of calcium ionophore (A23187, 10.0 μM, Sigma). Samples of the medium (80 μL) were collected, and NOx measurement was performed using the Griess reaction facilitated by a commercial calorimetric assay (Cayman Chemical).

cytokine-stimulated VSMC [1] = experiment: Effect of arginine oligomers on NO production in cytokine-stimulated VSMC (NO2, Griess); type: cell-based, rat
Procedure: Rat VSMCs were prepared from the media layer of thoracic aorta of Sprague-Dawley rats by the explant method. The cells were cultured in Dulbecco's modified Eagle's medium (DMEM, Gibco BRL, Gaithersburg, Md.) containing 10% fetal calf serum, 100 U/ml penicillin and 100 μg/ml streptomycin at 37° C. under a humidified atmosphere containing 5% CO2. After subconfluent growth, cells were cultured with MEM Select Amine Kit (Gibco BRL, Gaithersburg, Md.) to be treated by specific concentrations of extracellular free L-arginine. Experiments were performed using cultured cells at passage levels of 5-10.
Extracellular NO production was measured as its stable oxidative metabolite, nitrite (NO2). At the end of each incubation, samples of the medium (80 μl) were collected, and NO2 measurement was performed using the Griess reaction facilitated by a commercial calorimetric assay (Cayman Chemical, Ann Arbor, Mich.). Values of NO2 production were corrected with relative cell count assessed by a cell proliferation kit II (XTT) (Boeheringer Mannheim, Germany).
Subconfluent cells were pre-incubated with medium containing 100 μM arginine for 24 hours. The cells were then transiently pretreated with each arginine polymer for 30 minutes. After translocation, the cells were incubated with a mixture of IFN-γ (100 U/ml) and LPS (100 μg/ml) in medium containing 100 μM L-arginine for another 24 hours. In some experiments, L-NMMA (1 mM), a nitric oxide synthase inhibitor, was added to the medium.

cytokine-stimulated VSMC [2] = experiment: as above; type: cell-based, rat; conditions: exposure 5 minutes; observed for 24 hours; free L-arginine at 1 mM
[3] = test system: rat vascular smooth muscle cells (VSMC); experiment: Translocation of biotin-labeled peptides into cultured VSMC (HRP-streptavidin/DAB staining); type: cell-based; conditions: for internalized biotin signal (staining): 30 minutes
Procedure: In the studies described below, transmembrane transport and cellular uptake of oligomers was assessed by incubating cells or tissue with biotin-oligomer conjugates, followed by treatment with horseradish peroxidase (HRP)-conjugated streptavidin and subsequent incubation with DAB (3,3′-diaminobenzidine), a substrate of the enzyme which produces a highly colored product.
Cultured VSMC (vascular smooth muscle cells) were treated, as described in Example 2, with biotinylated oligomers of arginine or lysine. After incubation, the cells were treated with HRP-streptavidin conjugate, then with DAB. Staining by the oxidation product was observed using light microscopy.
Rat VSMCs were grown on glass microscope slide chambers (Nunc Inc., Naperville, Ill.). Subconfluent cells were washed and placed in serum-free medium. After 2 hours, cells were treated with bR7, or bK7 (0.1 μM, 1.0 μM, 10 μM), at 37° C. for 30 minutes. To assess the role of endocytosis in cellular uptake of the peptides, experiments were performed at 4° C., and also in the presence of sodium azide (1.0%) for 30 minutes prior to exposure to the peptides. To assess the involvement of the basic amino acid transport system y+ in the translocation of peptides into the cell, experiments were performed in the presence of excess extracellular L-arginine (10 mM).
After 30 minutes of incubation with the peptides, cells were washed 3 times with phosphate-buffered saline (PBS), fixed for 5 minutes at −20° C. in ethanol/acetone, washed 3 times in PBS, incubated for 30 minutes with a peroxidase suppressor (ImmunoPure, Pierce, Rockford, Ill.) to block endogenous peroxidase activity and nonspecific binding, washed, and then incubated with 5 μg/ml of horseradish peroxidase (HRP) conjugated strepavidin (Pierce, Rockford, Ill.) for 30 minutes. Cells were washed 3 times with PBS, and a substrate of HRP, DAB (Sigma, St. Louis, […].), was added to the cells. The reaction was terminated by washing in distilled water after a 60-second incubation with DAB. Cell preparations were observed by conventional light microscopy (see FIG. 1). This experimental protocol was repeated 3 times.

[4] = test system: human umbilical vein endothelial cells (ECV304); experiment: In vitro translocation of biotin-labeled peptides into endothelial cells; type: cell-based; conditions: for internalized biotin: endothelial cells
Procedure: Spontaneously transformed human umbilical vein endothelial cells (ECV304, ATCC) were cultured in medium M199 (Irvine Scientific) containing 10% fetal bovine serum (FBS), 100 IU/ml penicillin and 100 μg/ml of streptomycin (Gibco BRL). Confluent cells were washed and placed in serum-free medium. After 2 hours, the cells were incubated in presence of biotin labeled peptides, as bL-R7, or bD-R7, or bL-K7 (0.1, 1.0, and 10.0 μM). After 30 minutes of incubation, cells were washed 3 times with phosphate-buffered saline (PBS), fixed in ethanol/acetone; washed in PBS; incubated for 30 minutes with peroxidase suppressor (ImmunoPure, Pierce) to block endogenous peroxidase activity; and then incubated with 5 μg/ml of horse-radish peroxidase (HRP) conjugated strepavidin (Pierce) for 30 minutes. Substrate of HRP, diaminobenzidine (DAB, Sigma), was added to the cells. The reaction was terminated by washing in distilled water after a 60-second incubation. This experiment was repeated 3 times.

[5] = test system: rabbit carotid artery segment; experiment: Ex vivo translocation study, carotid artery segments; set-up: species or system New Zealand white rabbits
Procedure: After incubation with biotin labeled oligomer, vascular segments were washed, then frozen in OCT compound (Miles Scientific). Frozen sections, 5 μm thick, were fixed with acetone for 10 minutes. Internalized biotin was detected using the staining procedure described in Example 2. Methyl green was used for nuclear counter staining.
To quantify the efficiency of nuclear translocation, the numbers of both DAB positive nuclei and total nuclei were counted in the intima and media separately at ×400 magnification with a video image analysis system (Automatrix). The frequency of nuclear translocation was expressed as the percent staining of nuclei, defined as the ratio of the number of DAB positive nuclei to that of all nuclei, in the intima and media. Each protocol was repeated 4 times.
Both carotid artery and jugular vein segments of male New Zealand white rabbits were used. To test the dose dependence of R7 translocation, vascular segments were incubated for 30 minutes with either bL-R7 or bD-R7 solution (0.1, 1.0, and 10.0 μM) in serum-free Dulbecco's minimal essential medium (DMEM) (Gibco BRL). To test the incubation time dependence, vascular segments were incubated with 10.0 μM of biotin labeled R7 solution for 10 seconds, 60 seconds, 5 minutes, 10 minutes, and 30 minutes. Furthermore, to determine the ability of R7 to penetrate through the vessel wall, vascular segments were ligated one end, R7 containing medium was instilled, and the other end ligated so as to expose only the luminal surface to R7. The luminal surface of the vascular segment was exposed to bL-R7 or bD-R7 (10.0 μM) for 30 minutes. To test the temperature dependence of translocation, vascular segments were incubated with 10.0 μM of biotin labeled R7 solutions at 37° C. or 4° C. To determine the disappearance time course of translocated R7, vascular segments were incubated with biotin labeled R7 solutions (10.0 μM) at 37° C. for 30 minutes, and then reincubated in DMEM with 10% FBS up to 5 days. Vascular segments were harvested at 1, 2 and 5 days after initial incubation.

vein grafts = experiment: Vein graft model: vessel morphometry 28 days after surgery; type: in vivo, New Zealand white rabbits
Procedure: Male New Zealand white rabbits (3.0-3.5 kg) fed standard diets were anesthetized with a mixture of ketamine (40 mg/kg) and xylazine (5 mg/kg) intramuscularly. The left external jugular vein was exposed through a longitudinal neck incision. The jugular vein was excised, gently flushed and immersed in PBS (control) or PBS containing either L-R7 (10.0 μM) or D-r7 (10.0 μM) for 30 minutes.
The right common carotid artery was exposed and clamped at the both proximal and distal ends. The treated vein segment was washed with PBS and then anastomosed in a reverse end-to-side fashion into the carotid artery, using continuous 8-0 polypropylene sutures. The common carotid artery was ligated and dissected between the two anastomoses, and the wound was closed with 3-0 nylon suture.
Vein graft segments were harvested on the 28th surgical day. Graft segments were fixed in 10% buffered formalin with gentle intraluminal pressure to maintain the physiological graft configuration. The middle portion of the paraffin samples were sectioned (5 μm) and stained with hematoxylin/eosin for light microscopic examination (FIGS. 8A-C). Three sections of each graft, taken at 0.5 mm intervals, were analyzed by planimetry by a observer blinded to the treatment group. The cross-sectional areas of the lumen, intima and media was digitized with the use of the Image Analyst program (Automatrix). The ratio of intima to media (I/M) area was calculated.

Rat aortic VSMC = experiment: VSMC proliferation assay (XTT); type: cell-based; conditions: 10.0 μM, 30 minutes, then growth medium 0.5% FBS for 48 hours; vs vehicle
Procedure: Rat aortic VSMC were grown to 50% confluence in 96-well cell culture plates. VSMC were then washed and incubated with serum free DMEM for 48 hours to obtain quiescent nondividing cells. Thereafter, VSMC were treated with vehicle, L-R7 (10.0 μM), or D-R7 (10.0 μM) for 30 minutes. After the treatment, cells were washed, and further incubated with serum containing DMEM (0.5%, FBS). Cells were harvested after 48 hours of incubation. Cell count was performed with commercial cell proliferation assay kit using spectrophotometer (XTT, Boehringer Mannheim). As a negative control, cells treated with vehicle and incubated with DSF were used. As an index of cell proliferation, the OD ratio of each treatment group to negative control group was calculated as an index of cell proliferation.

Molecule: CNc1ccc2oc(C[C@H]3O[C@@]4(CC[C@H]3C)O[C@H]([C@H](C)C(=O)c3ccc[nH]3)[C@H](C)C[C@H]4C)nc2c1C(=O)O [Calcium ionophore, reference compound]
- NOx production by the vein grafts on calcium ionophore stimulation (vein graft segments; A23187, 10.0 μM): did not significantly affect the NOx production

Molecule: N=C(N)NCCC[C@H](N)C(=O)O [L-arginine, reference compound]
- elevation of NO production (cytokine-stimulated VSMC [1]; R7 10 μM pretreatment, free L-arginine up to 1 mM): not observed
- NO biosynthesis after 5 minutes exposure (cytokine-stimulated VSMC [2]): did not significantly increase NO biosynthesis

Molecule: biotin-labeled heptaarginine [bR7]
- internalized biotin signal (staining) ([3]; 0.1 μM): internalized biotin was observed in all VSMCs
- internalized biotin signal (staining) ([3]; 10 μM, 37° C.): very intense staining, not only in the cytoplasm, but also in the nucleus of all VSMC
- efficacy of translocation at 4° C. ([3]; 4° C.): no apparent reduction was observed in the efficacy of bR7 translocation
- cytoplasmic and nuclear staining after sodium azide ([3]; cells exposed to 1% sodium azide for 30 minutes prior to incubation): neither cytoplasmic nor nuclear staining was observed
- translocation in presence of free L-arginine ([3]; free L-arginine up to 10 mM added): Nor was translocation of bR7 inhibited
- internalized biotin ([4]; 0.1 μM): internalized biotin was observed in the cytoplasm of all EC
- internalized biotin ([4]; 10.0 μM for 30 minutes): internalized biotin was detected not only in the cytoplasm but also in the nucleus of virtually all exposed endothelial cells
- speed or efficacy of translocation into vascular tissue at 4° C. ([5]; 10.0 μM, 4° C.): no apparent reduction in the speed or efficacy
- biotin signals after intraluminal instillation ([5]; 10.0 μM, 30 minutes of intraluminal exposure): biotin signals were detected throughout the vessel, including the adventitial cells
- biotin signal in vascular cells ([5]; carotid artery, 10.0 μM, 30 minutes): a distinct biotin signal was observed in virtually all intimal cells, medial cells, and adventitial cells
- biotin staining by day 5 ([5]; day 5 after exposure (10.0 μM), serum containing medium): No significant positive staining

Molecule: hepta-D-arginine [D-r7]
- translocation across cytoplasmic and nuclear membranes ([4]; VSMC and endothelial cells in culture): very efficient at translocating across both cytoplasmic and nuclear membranes
- NO production (cytokine-stimulated VSMC [1]; 100 μM, 30 minutes): did not increase the NO production
- myointima formation (vein grafts): substantially less myointima formation
- intima/media ratio (I/M) (vein grafts; 10.0 μM): 0.8±0.2
- intimal area (vein grafts; 10.0 μM, 30 minutes immersion): 1.1±0.4 mm^2
- reduction of intimal area (vein grafts; 10.0 μM, vs control): about 35%
- Basal NOx production (vein graft segments; vein grafts harvested after 3 days, absence of calcium ionophore): 48±8 nM/mg tissue/hr
- VSMC proliferation (Rat aortic VSMC): significantly inhibited
